Test results published in publication PMC3833278, “De Novo Design of Protein Kinase Inhibitors by in Silico Identification of Hinge Region-Binding Fragments” (ACS Chemical Biology, 2013).

Tests used:
Assay type in all cases: biochemical
CK2 = biological target: T1, CK2 (Homo sapiens, UniProt P68400); test: Radioactive (33P-ATP) filter-binding kinase assay, IC50
T1 construct: MRC Protein Phosphorylation Unit, University of Dundee (screening panel)
Experimental: (§1) Selected compounds were screened against a panel of mammalian kinases routinely run in the MRC Protein Phosphorylation Unit at the University of Dundee (www.kinase-screen.mrc.ac.uk).[21] Compounds were supplied in DMSO and screened in duplicates at 100 μM concentration using a radioactive (^33P-ATP) filter-binding-assay. For hit validation and all subsequent IC50 determinations, selected compounds were solubilized in DMSO at a top concentration of 51 mM and serially diluted to achieve 10-point titration of final assay concentrations from 1 mM to 30 nM. All IC50 determination assays were done in duplicate and the IC50 values were calculated using Prism (GraphPad Software, Inc.). All biochemical assays were run below the Km^app for the ATP for each enzyme allowing comparison of inhibition across the panel.

MAPKAP-K3 = biological target: T2, MAPKAP-K3 (Homo sapiens, UniProt Q16644); test: as above
T2 construct: MRC Protein Phosphorylation Unit, University of Dundee (screening panel)
Experimental: as §1

RSK2 = biological target: T3, RSK2 (Homo sapiens, UniProt P51812); test: as above
T3 construct: MRC Protein Phosphorylation Unit, University of Dundee (screening panel)
Experimental: as §1

Src = biological target: T4, Src (Homo sapiens, UniProt P12931); test: as above
T4 construct: MRC Protein Phosphorylation Unit, University of Dundee (screening panel)
Experimental: as §1

SRPK1 = biological target: T5, SRPK1 (Homo sapiens, UniProt Q96SB4); test: as above
T5 construct: MRC Protein Phosphorylation Unit, University of Dundee (screening panel)

MSK1 = biological target: T6, MSK1 (Homo sapiens, UniProt O75582); test: Kinase panel screen at 100 μM, radioactive filter-binding assay
T6 construct: MRC Protein Phosphorylation Unit, University of Dundee (screening panel)
Experimental: (§2) A subset of library compounds was tested against a panel of 117 protein kinases as proof of concept study (Figure 4). The compounds were chosen to cover all six core fragments and to be fragment-sized (MW < 300 Da), therefore having a higher probability of inhibiting a kinase compared to more elaborated library compounds with the potential draw-back of having only moderate binding affinity.[25] […] According to these definitions, all assayed compounds were at least moderately active against at least one kinase (Figure 5a).
as §1

[1] = test system: panel of 117 protein kinases; test: as above; conditions: for number of kinases inhibited with >40% inhibition: panel of 117 kinases; for number of kinases of the docking panel for which activity was found: only kinases in the docking panel
Experimental: as §2, §1

Aurora A = biological target: T7, Aurora A (Homo sapiens, UniProt O14965); test: Radioactive (33P-ATP) filter-binding kinase assay, IC50
T7 construct: MRC Protein Phosphorylation Unit, University of Dundee (screening panel)
Experimental: as §1

FGF-R1 = biological target: T8, FGF-R1 (Homo sapiens, UniProt P11362); test: as above
T8 construct: MRC Protein Phosphorylation Unit, University of Dundee (screening panel)
Experimental: as §1

GCK = biological target: T9, GCK (Homo sapiens, UniProt Q12851); test: as above
T9 construct: MRC Protein Phosphorylation Unit, University of Dundee (screening panel)
Experimental: as §1

IGF-1R = biological target: T10, IGF-1R (Homo sapiens, UniProt P08069); test: as above
T10 construct: MRC Protein Phosphorylation Unit, University of Dundee (screening panel)
Experimental: as §1

TAK1 = biological target: T11, TAK1 (Homo sapiens, UniProt O43318); test: as above
T11 construct: MRC Protein Phosphorylation Unit, University of Dundee (screening panel)
Experimental: as §1

CDK2 = CDK2 (Homo sapiens, UniProt P24941); test: as above
CLK2 = CLK2 (Homo sapiens, UniProt P49760); test: as above
EPH-B3 = biological target: T12, EPH-B3 (Homo sapiens, UniProt P54753); test: as above
T12 construct: MRC Protein Phosphorylation Unit, University of Dundee (screening panel)
Experimental: as §1

MKK1 = biological target: T13, MKK1 (Homo sapiens, UniProt Q02750); test: Kinase panel screen at 100 μM, radioactive filter-binding assay
T13 construct: MRC Protein Phosphorylation Unit, University of Dundee (screening panel)
Experimental: as §2, §1

PIM1 = biological target: T14, PIM1 (Homo sapiens, UniProt P11309); test: Radioactive (33P-ATP) filter-binding kinase assay, IC50
T14 construct: MRC Protein Phosphorylation Unit, University of Dundee (screening panel)
Experimental: as §1

PIM3 = biological target: T15, PIM3 (Homo sapiens, UniProt Q86V86); test: as above
T15 construct: MRC Protein Phosphorylation Unit, University of Dundee (screening panel)
Experimental: as §1

SGK1 = biological target: T16, SGK1 (Homo sapiens, UniProt O00141); test: as above
T16 construct: MRC Protein Phosphorylation Unit, University of Dundee (screening panel)
Experimental: as §1

GSK-3β = GSK-3β (Homo sapiens, UniProt P49841); test: as above
CHK2 = biological target: T17, CHK2 (Homo sapiens, UniProt O96017); test: as above
T17 construct: MRC Protein Phosphorylation Unit, University of Dundee (screening panel)
Experimental: as §1

HER4 = biological target: T18, HER4 (Homo sapiens, UniProt Q15303); test: as above
T18 construct: MRC Protein Phosphorylation Unit, University of Dundee (screening panel)
Experimental: as §1

YES1 = biological target: T19, YES1 (Homo sapiens, UniProt P07947); test: as above
T19 construct: MRC Protein Phosphorylation Unit, University of Dundee (screening panel)
Experimental: as §1

VEG-FR = VEG-FR (Homo sapiens, UniProt P35968); test: as above

T8 sequence (P11362 22-822, species assumed): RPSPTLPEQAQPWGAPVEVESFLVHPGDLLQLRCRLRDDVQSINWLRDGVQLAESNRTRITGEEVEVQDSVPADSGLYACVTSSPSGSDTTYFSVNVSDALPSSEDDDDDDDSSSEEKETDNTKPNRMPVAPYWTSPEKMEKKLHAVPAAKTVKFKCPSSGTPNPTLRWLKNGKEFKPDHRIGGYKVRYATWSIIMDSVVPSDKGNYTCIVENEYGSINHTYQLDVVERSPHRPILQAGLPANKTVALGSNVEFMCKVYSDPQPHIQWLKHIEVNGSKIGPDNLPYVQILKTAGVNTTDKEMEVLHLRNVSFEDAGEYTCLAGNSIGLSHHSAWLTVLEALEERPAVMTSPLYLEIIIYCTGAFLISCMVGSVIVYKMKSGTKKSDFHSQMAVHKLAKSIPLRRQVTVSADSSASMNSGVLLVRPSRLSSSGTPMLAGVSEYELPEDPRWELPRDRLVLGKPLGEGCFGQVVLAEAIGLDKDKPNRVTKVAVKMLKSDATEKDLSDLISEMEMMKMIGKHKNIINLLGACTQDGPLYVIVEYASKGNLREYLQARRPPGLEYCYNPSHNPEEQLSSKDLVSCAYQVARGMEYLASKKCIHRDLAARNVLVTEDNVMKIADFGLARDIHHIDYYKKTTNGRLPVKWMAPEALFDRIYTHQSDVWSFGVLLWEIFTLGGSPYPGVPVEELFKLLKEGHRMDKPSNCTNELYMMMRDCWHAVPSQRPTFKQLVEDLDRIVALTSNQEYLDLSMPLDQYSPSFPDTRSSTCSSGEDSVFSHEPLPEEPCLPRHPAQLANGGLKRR
T9 sequence (Q12851 whole entry): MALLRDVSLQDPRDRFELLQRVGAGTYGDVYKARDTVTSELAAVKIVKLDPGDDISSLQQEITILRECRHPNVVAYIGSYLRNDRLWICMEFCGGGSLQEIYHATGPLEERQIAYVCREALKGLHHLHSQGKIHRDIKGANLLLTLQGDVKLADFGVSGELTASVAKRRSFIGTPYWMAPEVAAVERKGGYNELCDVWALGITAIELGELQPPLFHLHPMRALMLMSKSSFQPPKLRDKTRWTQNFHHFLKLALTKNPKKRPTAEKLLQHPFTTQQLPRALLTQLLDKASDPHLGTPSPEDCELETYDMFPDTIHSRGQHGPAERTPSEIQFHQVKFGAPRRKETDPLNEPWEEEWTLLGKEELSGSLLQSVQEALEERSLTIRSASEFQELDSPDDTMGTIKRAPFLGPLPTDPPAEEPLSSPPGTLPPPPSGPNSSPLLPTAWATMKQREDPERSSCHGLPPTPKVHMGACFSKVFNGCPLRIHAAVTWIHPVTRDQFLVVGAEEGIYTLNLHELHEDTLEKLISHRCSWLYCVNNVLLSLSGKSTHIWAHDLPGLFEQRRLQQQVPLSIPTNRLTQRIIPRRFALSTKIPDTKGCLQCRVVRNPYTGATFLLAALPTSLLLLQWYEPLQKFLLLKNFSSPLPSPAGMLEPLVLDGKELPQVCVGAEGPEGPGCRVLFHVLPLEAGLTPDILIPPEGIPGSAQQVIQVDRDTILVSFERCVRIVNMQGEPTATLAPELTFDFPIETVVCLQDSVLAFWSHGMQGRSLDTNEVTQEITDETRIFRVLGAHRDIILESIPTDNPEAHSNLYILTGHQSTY
T10 sequence (P08069 31-1367, species assumed): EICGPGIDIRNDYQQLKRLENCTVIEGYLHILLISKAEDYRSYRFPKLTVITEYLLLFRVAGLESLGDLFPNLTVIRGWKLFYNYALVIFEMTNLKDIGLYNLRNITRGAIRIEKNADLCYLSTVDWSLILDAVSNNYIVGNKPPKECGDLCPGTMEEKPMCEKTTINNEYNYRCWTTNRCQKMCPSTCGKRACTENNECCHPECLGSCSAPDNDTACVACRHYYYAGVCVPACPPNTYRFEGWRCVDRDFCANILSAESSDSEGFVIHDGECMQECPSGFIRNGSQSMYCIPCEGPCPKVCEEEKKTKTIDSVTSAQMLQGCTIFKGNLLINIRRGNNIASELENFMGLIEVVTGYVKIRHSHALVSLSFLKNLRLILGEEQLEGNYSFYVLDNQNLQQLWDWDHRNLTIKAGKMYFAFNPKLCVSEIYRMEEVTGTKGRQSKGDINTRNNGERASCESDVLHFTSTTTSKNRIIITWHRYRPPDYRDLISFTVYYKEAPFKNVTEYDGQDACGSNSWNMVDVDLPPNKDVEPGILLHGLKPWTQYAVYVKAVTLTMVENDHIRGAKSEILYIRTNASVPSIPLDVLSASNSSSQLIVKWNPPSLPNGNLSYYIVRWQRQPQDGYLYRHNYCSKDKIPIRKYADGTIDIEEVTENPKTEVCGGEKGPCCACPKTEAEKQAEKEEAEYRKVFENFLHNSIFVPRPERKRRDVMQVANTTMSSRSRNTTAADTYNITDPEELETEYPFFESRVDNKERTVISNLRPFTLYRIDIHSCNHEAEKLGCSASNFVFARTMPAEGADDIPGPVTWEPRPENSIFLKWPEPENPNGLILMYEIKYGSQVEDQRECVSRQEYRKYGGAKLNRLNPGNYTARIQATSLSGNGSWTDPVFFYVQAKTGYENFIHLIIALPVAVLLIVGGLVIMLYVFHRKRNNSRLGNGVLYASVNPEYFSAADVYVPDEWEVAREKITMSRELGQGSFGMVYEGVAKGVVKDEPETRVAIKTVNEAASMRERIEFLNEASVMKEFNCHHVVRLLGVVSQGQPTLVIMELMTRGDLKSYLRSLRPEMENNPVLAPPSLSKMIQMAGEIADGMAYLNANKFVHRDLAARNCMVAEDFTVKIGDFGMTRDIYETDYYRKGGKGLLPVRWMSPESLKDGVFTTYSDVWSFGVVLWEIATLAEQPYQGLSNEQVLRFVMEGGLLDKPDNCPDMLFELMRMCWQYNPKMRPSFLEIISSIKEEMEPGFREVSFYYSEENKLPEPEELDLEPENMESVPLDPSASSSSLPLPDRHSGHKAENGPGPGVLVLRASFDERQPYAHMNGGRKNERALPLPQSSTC
T4 sequence (P12931 whole entry, species assumed): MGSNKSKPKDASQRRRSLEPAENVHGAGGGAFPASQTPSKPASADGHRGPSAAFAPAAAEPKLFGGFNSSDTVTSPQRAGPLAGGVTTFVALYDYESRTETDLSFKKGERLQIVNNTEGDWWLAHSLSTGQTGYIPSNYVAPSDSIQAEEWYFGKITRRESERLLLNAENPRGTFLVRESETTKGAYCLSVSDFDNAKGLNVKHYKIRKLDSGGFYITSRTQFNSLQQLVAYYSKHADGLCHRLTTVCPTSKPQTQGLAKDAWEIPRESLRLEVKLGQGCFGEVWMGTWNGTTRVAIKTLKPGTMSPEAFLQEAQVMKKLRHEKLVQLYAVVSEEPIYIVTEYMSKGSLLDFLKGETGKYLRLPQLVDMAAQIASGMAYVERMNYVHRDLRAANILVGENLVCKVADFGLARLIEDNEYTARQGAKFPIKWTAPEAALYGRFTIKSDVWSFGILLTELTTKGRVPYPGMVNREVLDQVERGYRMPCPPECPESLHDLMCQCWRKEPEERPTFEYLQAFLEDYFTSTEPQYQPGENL
T1 sequence (P68400 whole entry): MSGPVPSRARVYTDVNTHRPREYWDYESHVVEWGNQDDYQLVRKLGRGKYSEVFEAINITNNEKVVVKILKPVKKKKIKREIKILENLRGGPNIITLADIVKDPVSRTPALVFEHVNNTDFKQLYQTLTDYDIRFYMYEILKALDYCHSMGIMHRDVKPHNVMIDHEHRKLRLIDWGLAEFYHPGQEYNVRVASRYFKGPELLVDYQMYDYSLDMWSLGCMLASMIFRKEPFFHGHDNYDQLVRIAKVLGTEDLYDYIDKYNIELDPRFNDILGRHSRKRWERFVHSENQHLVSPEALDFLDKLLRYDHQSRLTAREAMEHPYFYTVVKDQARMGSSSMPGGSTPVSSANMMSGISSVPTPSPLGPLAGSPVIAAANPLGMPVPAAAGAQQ
T11 sequence (O43318 1-303 limits assumed): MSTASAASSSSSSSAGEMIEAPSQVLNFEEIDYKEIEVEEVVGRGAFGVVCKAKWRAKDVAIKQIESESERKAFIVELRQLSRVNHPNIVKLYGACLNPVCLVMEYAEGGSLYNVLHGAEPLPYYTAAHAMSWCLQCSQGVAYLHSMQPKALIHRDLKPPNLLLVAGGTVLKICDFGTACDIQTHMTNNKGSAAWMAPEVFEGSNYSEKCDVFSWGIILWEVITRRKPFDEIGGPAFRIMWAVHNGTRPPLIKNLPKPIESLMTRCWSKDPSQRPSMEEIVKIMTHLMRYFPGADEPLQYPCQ
T2 sequence (Q16644 whole entry, species assumed): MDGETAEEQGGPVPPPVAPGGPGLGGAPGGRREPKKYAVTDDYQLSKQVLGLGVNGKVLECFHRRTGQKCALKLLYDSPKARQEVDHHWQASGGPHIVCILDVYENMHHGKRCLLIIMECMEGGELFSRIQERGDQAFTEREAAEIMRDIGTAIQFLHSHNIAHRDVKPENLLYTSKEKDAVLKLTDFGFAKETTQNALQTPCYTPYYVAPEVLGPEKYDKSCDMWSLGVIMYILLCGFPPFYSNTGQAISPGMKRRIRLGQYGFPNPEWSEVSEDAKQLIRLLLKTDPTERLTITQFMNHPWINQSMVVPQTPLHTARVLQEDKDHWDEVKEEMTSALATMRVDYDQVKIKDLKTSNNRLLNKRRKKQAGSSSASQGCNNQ

CC1CN(c2nc3ccccn3c(=O)c2N)CC(C)O1 (centres unmarked) [A1]
LE (CK2): 0.33 kcal/mol heavy atom | LE (MAPKAP-K3): 0.33 kcal/mol heavy atom | LE (RSK2): 0.26 kcal/mol heavy atom | LE (Src): 0.28 kcal/mol heavy atom | LE (SRPK1): 0.28 kcal/mol heavy atom

O=C(Nc1cnc2[nH]cnn2c1=O)c1ccccc1 [E1]
inhibition at 100 µM (MSK1): > 40% | number of kinases inhibited with >40% inhibition [1]: one

Nc1cnc2c(-c3c(F)cccc3F)cccn2c1=O [A2]
LE (Aurora A): 0.26 kcal/mol heavy atom | LE (CK2): 0.27 kcal/mol heavy atom | LE (FGF-R1): 0.25 kcal/mol heavy atom | LE (GCK): 0.38 kcal/mol heavy atom | LE (IGF-1R): 0.30 kcal/mol heavy atom | LE (TAK1): 0.32 kcal/mol heavy atom | LE (CDK2): 0.33 kcal/mol heavy atom | LE (CLK2): 0.32 kcal/mol heavy atom | number of kinases inhibited with >40% inhibition [1]: 55

CC(C)(C)Nc1c(C2CC2)nc2[nH]cnn12 [D1]
LE (EPH-B3): 0.33 kcal/mol heavy atom | LE (FGF-R1): 0.29 kcal/mol heavy atom

O=c1c(NC(=S)NCc2ccccc2)cnc2[nH]ccn12 [F2]
inhibition at 100 µM (MKK1): > 40% | number of kinases inhibited with >40% inhibition [1]: one

O=c1cc(-c2ccccc2F)nc2[nH]ccn12 [F3]
LE (PIM1): 0.38 kcal/mol heavy atom | LE (PIM3): 0.40 kcal/mol heavy atom

COc1ccc(-c2cc3c(=O)[nH]cnc3s2)cc1OC [C2]
LE (SGK1): 0.28 kcal/mol heavy atom | LE (GSK-3β): 0.32 kcal/mol heavy atom

Nc1nc2cnc(-c3ccccc3)cn2n1 [B1]
LE (CHK2): 0.42 kcal/mol heavy atom | LE (GCK): 0.46 kcal/mol heavy atom | LE (HER4): 0.41 kcal/mol heavy atom | LE (IGF-1R): 0.40 kcal/mol heavy atom | LE (Src): 0.41 kcal/mol heavy atom | LE (TAK1): 0.43 kcal/mol heavy atom | LE (YES1): 0.41 kcal/mol heavy atom | LE (VEG-FR): 0.39 kcal/mol heavy atom | number of kinases of the docking panel for which activity was found [1]: 31 | number of kinases inhibited with >40% inhibition [1]: 63

CC(=O)Nc1nc2cnc(-c3c(C)cccc3C)cn2n1 [B4]
number of kinases of the docking panel for which activity was found [1]: did not inhibit any kinase in the docking panel
